Assay results: ChEMBL document CHEMBL5647694, “Novel orally bioavailable EZH1/2 dual inhibitors with greater antitumor efficacy than an EZH2 selective inhibitor” (Cancer Sci, 2017)

Assays:
[1] = target: NUAK family SNF1-like kinase 1 (Homo sapiens) (UniProt O60285); test: Inhibition of N-terminal GST-fused full length human Nuak1 (1 to 661 residues) expressed in baculovirus expression system using CHKtide as substrate at 1 uM in presence of ATP by Mobility shift assay
[2] = target: Aurora kinase A/Targeting protein for Xklp2 (Homo sapiens) (UniProt O14965+Q9ULW0); test: Inhibition of N-terminal GST-fused full length human AurA (1 to 403 residues)/TPX2 expressed in baculovirus-infected Sf21 cells using Kemptide as substrate at 1 uM in presence of ATP by Mobility shift assay
[3] = target: NUAK family SNF1-like kinase 2 (Homo sapiens) (UniProt Q9H093); test: Inhibition of N-terminal GST-fused full length human Nuak2 (1 to 628 residues) expressed in baculovirus expression system using CHKtide as substrate at 1 uM in presence of ATP by Mobility shift assay
[4] = target: Tyrosine-protein kinase TXK (Homo sapiens) (UniProt P42681); test: Inhibition of N-terminal GST-tagged human TXK catalytic domain (260 to 527 residues) expressed in baculovirus-infected Sf21 cells using Srctide as substrate at 1 uM in presence of ATP by Mobility shift assay
[5] = target: Calcium/calmodulin-dependent protein kinase type II subunit beta (Homo sapiens) (UniProt Q13554); test: Inhibition of N-terminal GST-tagged full length human CAMK2b (1 to 503 residues) expressed in baculovirus-infected Sf21 cells using GS peptide as substrate at 1 uM in presence of ATP by Mobility shift assay
[6] = target: Mitogen-activated protein kinase kinase kinase kinase 2 (Homo sapiens) (UniProt Q12851); test: Inhibition of N-terminal GST-fused full length human MAP4K2 (1 to 820 residues) expressed in baculovirus expression system using S6K2 peptide as substrate at 1 uM in presence of ATP by Mobility shift assay
[7] = target: CDK2/Cyclin A2 (Homo sapiens) (UniProt P24941+P20248); test: Inhibition of N-terminal GST-tagged full length human CDK2 (1 to 298 residues)/GST-tagged human CyclinA2 (1 to 432 residues) expressed in baculovirus-infected Sf21 cells using Modified Histone H1 as substrate at 1 uM in presence of ATP by Mobility shift assay
[8] = target: Serine/threonine-protein kinase PLK2 (Homo sapiens) (UniProt Q9NYY3); test: Inhibition of N-terminal GST-fused full length human PLK2 (1 to 685 residues) expressed in baculovirus expression system using CHK2 peptide as substrate at 1 uM in presence of ATP by IMAP
[9] = target: Tyrosine-protein kinase Fes/Fps (Homo sapiens) (UniProt P07332); test: Inhibition of N-terminal GST-fused full length human FES (1 to 413, 416 to 822 residues) expressed in baculovirus-infected Sf21 cells using Srctide as substrate at 1 uM in presence of ATP by Mobility shift assay
[10] = target: RAC-alpha serine/threonine-protein kinase (Homo sapiens) (UniProt P31749); test: Inhibition of N-terminal GST-tagged human AKT1 catalytic domain (104 to 480 residues) co-expressed with His-tagged PDK1 (1 to 556 residues) in baculovirus-infected Sf21 cells using Crosstide as substrate at 1 uM in presence of ATP by Mobility shift assay
[11] = target: Mitogen-activated protein kinase 14 (Homo sapiens) (UniProt Q16539); test: Inhibition of N-terminal GST-fused truncated human p38alpha (9 to 352 residues) expressed in Escherichia coli expression system using Modified Erktide as substrate at 1 uM in presence of ATP by Mobility shift assay
[12] = target: Calcium/calmodulin-dependent protein kinase type 1D (Homo sapiens) (UniProt Q8IU85); test: Inhibition of N-terminal GST-tagged full length human CAMK1d (1 to 357 residues) expressed in baculovirus-infected Sf21 cells using Synapsin peptide as substrate at 1 uM in presence of ATP by Mobility shift assay
[13] = target: Tyrosine-protein kinase Yes (Homo sapiens) (UniProt P07947); test: Inhibition of N-terminal GST-tagged full length human YES (1 to 543 residues) expressed in baculovirus-infected Sf21 cells using Srctide as substrate at 1 uM in presence of ATP by Mobility shift assay
[14] = target: Mitogen-activated protein kinase 9 (Homo sapiens) (UniProt P45984); test: Inhibition of N-terminal GST-fused human JNK2 catalytic domain (1 to 364 residues) expressed in Escherichia coli expression system using Modified ERKtide as substrate at 1 uM in presence of ATP by Mobility shift assay
[15] = target: Fibroblast growth factor receptor 3 (Homo sapiens) (UniProt P22607); test: Inhibition of N-terminal GST-fused human FGFR3 cytoplasmic domain (436 to 806 residues) expressed in baculovirus-infected Sf21 cells using CSKtide as substrate at 1 uM in presence of ATP by Mobility shift assay
[16] = target: Casein kinase I isoform gamma-1 (Homo sapiens) (UniProt Q9HCP0); test: Inhibition of N-terminal GST-fused full length human CK1gamma1 (1 to 422 residues) expressed in baculovirus expression system using CKtide as substrate at 1 uM in presence of ATP by Mobility shift assay
[17] = target: cAMP-dependent protein kinase catalytic subunit gamma (Homo sapiens) (UniProt P22612); test: Inhibition of N-terminal GST-tagged full length human PKACgamma (1 to 351 residues) expressed in baculovirus expression system using Kemptide as substrate at 1 uM in presence of ATP by Mobility shift assay
[18] = target: Casein kinase I isoform gamma-3 (Homo sapiens) (UniProt Q9Y6M4); test: Inhibition of N-terminal GST-fused full length human CK1gamma3 (1 to 447 residues) expressed in baculovirus expression system using CKtide as substrate at 1 uM in presence of ATP by Mobility shift assay
[19] = target: Serine/threonine-protein kinase PAK 4 (Homo sapiens) (UniProt O96013); test: Inhibition of N-terminal GST-fused full length human PAK4 (1 to 591 residues) expressed in baculovirus expression system using SGKtide as substrate at 1 uM in presence of ATP by Mobility shift assay
[20] = target: Ephrin type-B receptor 4 (Homo sapiens) (UniProt P54760); test: Inhibition of N-terminal GST-fused human EPHB4 cytoplasmic domain (577 to 987 residues) expressed in baculovirus-infected Sf21 cells using Blk/Lyntide as substrate at 1 uM in presence of ATP by Mobility shift assay
[21] = target: Serine/threonine-protein kinase MRCK beta (Homo sapiens) (UniProt Q9Y5S2); test: Inhibition of N-terminal GST-fused truncated human MRCKbeta (1 to 473 residues) expressed in baculovirus expression system using DAPK1tide as substrate at 1 uM in presence of ATP by Mobility shift assay
[22] = target: Tyrosine-protein kinase Lyn (Homo sapiens) (UniProt P07948); test: Inhibition of N-terminal GST-tagged full length human LynA(1 to 512 residues ) expressed in baculovirus-infected Sf21 cells using Srctide as substrate at 1 uM in presence of ATP by Mobility shift assay
Sequence of Tyrosine-protein kinase Lyn (Homo sapiens) (P07948 2-512 limits assumed): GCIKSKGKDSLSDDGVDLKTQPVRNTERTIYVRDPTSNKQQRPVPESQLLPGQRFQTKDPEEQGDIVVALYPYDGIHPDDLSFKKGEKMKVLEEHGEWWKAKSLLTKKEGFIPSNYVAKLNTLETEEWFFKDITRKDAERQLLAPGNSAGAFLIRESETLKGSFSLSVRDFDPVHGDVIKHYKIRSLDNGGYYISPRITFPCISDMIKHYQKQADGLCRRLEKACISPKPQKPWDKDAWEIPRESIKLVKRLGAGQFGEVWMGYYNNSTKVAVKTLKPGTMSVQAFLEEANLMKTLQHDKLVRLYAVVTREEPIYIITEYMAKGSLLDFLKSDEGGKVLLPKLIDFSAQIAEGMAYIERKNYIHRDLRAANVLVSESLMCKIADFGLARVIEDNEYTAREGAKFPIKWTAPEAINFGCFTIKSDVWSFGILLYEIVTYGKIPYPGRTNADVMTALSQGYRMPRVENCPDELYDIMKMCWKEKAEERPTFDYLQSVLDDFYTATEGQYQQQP

Sequence of RAC-alpha serine/threonine-protein kinase (Homo sapiens) (P31749 whole entry, the tested form may be a part): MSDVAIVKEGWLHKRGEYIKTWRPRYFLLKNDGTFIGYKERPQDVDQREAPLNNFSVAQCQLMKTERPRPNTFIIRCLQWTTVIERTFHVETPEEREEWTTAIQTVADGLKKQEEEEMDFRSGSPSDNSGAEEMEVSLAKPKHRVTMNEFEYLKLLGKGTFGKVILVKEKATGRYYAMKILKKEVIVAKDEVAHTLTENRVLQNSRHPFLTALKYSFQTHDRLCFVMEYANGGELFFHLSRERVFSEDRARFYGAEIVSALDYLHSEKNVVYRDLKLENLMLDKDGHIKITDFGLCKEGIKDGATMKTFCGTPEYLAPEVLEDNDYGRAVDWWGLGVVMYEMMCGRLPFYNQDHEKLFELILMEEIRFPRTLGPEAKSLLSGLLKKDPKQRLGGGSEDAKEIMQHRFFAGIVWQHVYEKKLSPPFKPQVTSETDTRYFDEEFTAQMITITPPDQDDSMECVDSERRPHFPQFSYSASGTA
Sequence of Calcium/calmodulin-dependent protein kinase type 1D (Homo sapiens) (Q8IU85 whole entry, looked up, the tested form may be a part): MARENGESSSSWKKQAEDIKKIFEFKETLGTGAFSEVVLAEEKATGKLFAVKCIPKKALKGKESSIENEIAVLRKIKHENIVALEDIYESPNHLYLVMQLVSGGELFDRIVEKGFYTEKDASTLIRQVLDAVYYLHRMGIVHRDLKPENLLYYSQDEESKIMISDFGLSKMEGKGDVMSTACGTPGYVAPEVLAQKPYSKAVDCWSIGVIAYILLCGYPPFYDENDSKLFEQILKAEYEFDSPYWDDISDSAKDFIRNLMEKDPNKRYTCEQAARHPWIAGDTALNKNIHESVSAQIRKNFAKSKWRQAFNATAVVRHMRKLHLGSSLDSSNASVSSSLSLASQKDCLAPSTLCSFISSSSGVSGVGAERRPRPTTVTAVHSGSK
Sequence of Ephrin type-B receptor 4 (Homo sapiens) (P54760 whole entry, the tested form may be a part): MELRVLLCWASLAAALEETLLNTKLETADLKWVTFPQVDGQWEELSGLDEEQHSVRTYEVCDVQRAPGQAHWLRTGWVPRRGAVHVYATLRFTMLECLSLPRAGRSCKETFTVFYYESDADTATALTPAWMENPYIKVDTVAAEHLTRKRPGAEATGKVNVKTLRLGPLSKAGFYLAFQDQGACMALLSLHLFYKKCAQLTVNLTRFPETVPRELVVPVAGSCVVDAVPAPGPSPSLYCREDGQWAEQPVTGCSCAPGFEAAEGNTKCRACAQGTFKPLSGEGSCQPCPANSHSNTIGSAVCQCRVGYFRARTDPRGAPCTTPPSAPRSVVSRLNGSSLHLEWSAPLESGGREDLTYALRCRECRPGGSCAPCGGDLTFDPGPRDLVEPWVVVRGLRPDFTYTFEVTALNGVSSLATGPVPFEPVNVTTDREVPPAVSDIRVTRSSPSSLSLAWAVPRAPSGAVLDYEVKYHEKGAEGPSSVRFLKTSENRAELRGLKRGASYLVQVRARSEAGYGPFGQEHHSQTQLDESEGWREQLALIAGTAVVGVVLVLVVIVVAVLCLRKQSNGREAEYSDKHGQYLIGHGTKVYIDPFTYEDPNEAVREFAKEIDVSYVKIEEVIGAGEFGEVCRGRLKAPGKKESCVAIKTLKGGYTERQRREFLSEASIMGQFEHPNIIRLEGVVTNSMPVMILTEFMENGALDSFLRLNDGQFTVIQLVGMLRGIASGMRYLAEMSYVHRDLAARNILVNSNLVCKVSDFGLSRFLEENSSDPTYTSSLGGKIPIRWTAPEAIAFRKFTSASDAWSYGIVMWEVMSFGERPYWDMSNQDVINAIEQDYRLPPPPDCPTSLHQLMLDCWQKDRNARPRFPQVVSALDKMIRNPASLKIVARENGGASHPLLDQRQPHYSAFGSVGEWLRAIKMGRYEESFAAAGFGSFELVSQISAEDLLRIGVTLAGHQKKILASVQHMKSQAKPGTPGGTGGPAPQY
Sequence of Mitogen-activated protein kinase 14 (Homo sapiens) (Q16539 whole entry, the tested form may be a part): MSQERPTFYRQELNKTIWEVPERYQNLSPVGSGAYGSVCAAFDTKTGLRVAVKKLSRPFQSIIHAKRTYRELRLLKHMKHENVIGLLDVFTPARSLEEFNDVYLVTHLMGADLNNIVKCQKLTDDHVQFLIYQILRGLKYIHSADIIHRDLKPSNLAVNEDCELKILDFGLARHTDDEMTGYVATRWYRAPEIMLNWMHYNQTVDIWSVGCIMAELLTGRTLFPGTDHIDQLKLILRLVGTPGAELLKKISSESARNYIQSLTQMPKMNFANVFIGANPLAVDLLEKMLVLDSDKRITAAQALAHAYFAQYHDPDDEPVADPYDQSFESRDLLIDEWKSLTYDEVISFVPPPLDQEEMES
Sequence of Serine/threonine-protein kinase PAK 4 (Homo sapiens) (O96013 whole entry, looked up, the tested form may be a part): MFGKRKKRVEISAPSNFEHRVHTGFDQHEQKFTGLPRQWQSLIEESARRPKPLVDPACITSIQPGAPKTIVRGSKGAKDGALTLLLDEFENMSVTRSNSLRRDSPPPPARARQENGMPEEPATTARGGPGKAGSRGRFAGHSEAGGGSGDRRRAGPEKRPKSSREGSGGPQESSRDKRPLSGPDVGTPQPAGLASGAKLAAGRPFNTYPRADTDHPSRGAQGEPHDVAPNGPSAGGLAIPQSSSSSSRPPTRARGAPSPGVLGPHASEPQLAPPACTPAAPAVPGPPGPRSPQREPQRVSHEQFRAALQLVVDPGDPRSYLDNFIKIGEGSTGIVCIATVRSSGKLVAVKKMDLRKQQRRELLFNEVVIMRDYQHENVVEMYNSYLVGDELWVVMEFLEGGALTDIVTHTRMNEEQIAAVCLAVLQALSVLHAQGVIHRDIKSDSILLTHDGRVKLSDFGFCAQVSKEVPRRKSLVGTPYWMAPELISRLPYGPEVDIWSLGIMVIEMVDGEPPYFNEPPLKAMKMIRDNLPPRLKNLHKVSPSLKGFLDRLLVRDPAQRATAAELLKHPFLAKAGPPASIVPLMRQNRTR
Sequence of Tyrosine-protein kinase Fes/Fps (Homo sapiens) (P07332 whole entry, the tested form may be a part): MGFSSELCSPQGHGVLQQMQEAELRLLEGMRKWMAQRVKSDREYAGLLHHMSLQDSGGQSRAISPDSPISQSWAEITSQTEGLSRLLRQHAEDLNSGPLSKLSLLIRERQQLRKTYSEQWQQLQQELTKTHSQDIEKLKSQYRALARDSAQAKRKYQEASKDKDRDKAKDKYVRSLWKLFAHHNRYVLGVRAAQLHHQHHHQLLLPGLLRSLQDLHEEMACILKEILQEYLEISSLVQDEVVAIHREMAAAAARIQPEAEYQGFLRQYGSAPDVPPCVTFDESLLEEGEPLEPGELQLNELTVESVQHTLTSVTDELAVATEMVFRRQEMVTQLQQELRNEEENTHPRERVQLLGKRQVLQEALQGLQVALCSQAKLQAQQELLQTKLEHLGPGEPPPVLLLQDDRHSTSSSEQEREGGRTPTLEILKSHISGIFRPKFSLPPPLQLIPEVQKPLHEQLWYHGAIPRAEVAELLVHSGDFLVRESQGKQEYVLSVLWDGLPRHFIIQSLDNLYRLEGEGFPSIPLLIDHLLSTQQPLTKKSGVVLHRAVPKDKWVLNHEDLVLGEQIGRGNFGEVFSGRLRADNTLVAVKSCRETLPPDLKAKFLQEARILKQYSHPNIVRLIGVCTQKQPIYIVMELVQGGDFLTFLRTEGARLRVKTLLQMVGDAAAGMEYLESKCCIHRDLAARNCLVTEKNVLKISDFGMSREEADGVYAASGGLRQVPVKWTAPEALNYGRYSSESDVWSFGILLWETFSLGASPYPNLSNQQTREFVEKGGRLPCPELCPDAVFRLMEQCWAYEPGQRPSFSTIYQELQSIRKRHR
Sequence of Casein kinase I isoform gamma-1 (Homo sapiens) (Q9HCP0 whole entry, looked up, the tested form may be a part, canonical isoform): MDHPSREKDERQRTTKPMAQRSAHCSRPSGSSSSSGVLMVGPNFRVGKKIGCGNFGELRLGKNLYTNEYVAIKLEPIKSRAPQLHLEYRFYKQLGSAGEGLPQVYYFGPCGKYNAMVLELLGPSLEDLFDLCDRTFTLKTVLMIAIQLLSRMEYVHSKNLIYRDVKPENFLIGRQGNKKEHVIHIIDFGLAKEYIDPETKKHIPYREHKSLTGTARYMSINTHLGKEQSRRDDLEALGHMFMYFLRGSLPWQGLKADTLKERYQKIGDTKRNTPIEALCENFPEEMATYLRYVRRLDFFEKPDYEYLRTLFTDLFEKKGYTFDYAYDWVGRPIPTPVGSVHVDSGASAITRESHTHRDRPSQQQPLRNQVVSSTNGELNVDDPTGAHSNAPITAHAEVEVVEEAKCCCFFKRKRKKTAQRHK
Sequence of cAMP-dependent protein kinase catalytic subunit gamma (Homo sapiens) (P22612 2-351 limits assumed): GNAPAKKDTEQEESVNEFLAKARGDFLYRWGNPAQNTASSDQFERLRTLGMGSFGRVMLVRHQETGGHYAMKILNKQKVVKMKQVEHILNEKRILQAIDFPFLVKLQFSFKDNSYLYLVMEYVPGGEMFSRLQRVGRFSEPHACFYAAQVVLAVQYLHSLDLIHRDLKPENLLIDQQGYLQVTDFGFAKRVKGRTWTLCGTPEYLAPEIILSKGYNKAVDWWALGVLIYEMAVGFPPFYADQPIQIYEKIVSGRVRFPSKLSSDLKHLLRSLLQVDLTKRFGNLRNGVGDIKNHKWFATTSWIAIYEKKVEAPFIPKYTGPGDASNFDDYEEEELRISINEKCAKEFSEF

Compound	inhibition [1] [%]	inhibition [2] [%]	inhibition [3] [%]	inhibition [4] [%]	inhibition [5] [%]	inhibition [6] [%]	inhibition [7] [%]	inhibition [8] [%]	inhibition [9] [%]	inhibition [10] [%]	inhibition [11] [%]	inhibition [12] [%]	inhibition [13] [%]	inhibition [14] [%]	inhibition [15] [%]	inhibition [16] [%]	inhibition [17] [%]	inhibition [18] [%]	inhibition [19] [%]	inhibition [20] [%]	also measured
Cc1cc(C)c(CNC(=O)c2cc(Br)c3c(c2C)O[C@@](C)([C@H]2CC[C@H](N(C)C)CC2)O3)c(=O)[nH]1	-1.7	-4.6	-4	1.3	-0.3	4.5	-0.3	11.8	-0.6	-2.9	-7.2	-3.6	-1.6	-4	-1.9	0.5	-1.4	1.1	-1.8	-6.1	inhibition [21]: -1%; inhibition [22]: -3.7%
Cc1cc(C)c(CNC(=O)c2cc(Cl)c3c(c2C)O[C@@](C)([C@H]2CC[C@H](N(C)C)CC2)O3)c(=O)[nH]1 [VALEMETOSTAT]	3	-6.8	2.1	-7	-1.4	2.3	3	4.8	-2.7	-2.9	-8	-3.5	-1.8	-5	-2.3	-1.8	-2.4	0.5	0.1	-4.7	inhibition [21]: -1.3%; inhibition [22]: -3.7%
